The nature of data set [1]: Stability (decomposition) in a still lemon beverage, hexane extraction and GC. The class given is physicochemical. The settings on record: for half life t½: 100 ppm, over 5 days, first order kinetic assumed. Here is the method: The stability of compound 1 of Example 1 was tested in a still lemon beverage prepared by 1+5 dilution of lemon/lime-lemon beverage concentrate (210 g) with water ([…]). Formula of the lemon/lime-lemon beverage concentrate used: [table] Three 100 ml solutions containing each 100 ppm of the compound 1 were prepared and the decomposition of 1 was determined over a period of 5 days by extraction of 5 ml test solutions samples with hexane, spiked with 100 ppm of ethyl myristate. The extracts were analyzed by GC (Hewlett Packard 6890; column: DB-5, 30 m, 0.32 mm i.d.) and for each data point a mean value based on three measurements was calculated.

For data set [2] the following is noted: aqueous solutions and acidic aqueous alcoholic and non-alcoholic beverages; cited from earlier work.

We go through five compounds from patent publication US6387431B1, “Dicarboalkoxy dioxolanes as flavoring agent releasing compounds” (Givaudan SA, priority 2000, dated 2002).

Turning to `CC(C)=CCCC(C)=CC1O[C@@H](C(=O)OC(C)C)[C@H](C(=O)OC(C)C)O1` (mixture of isomers) [compound 1, (E/Z)-(4R,5R)-2-(2,6-Dimethyl-hepta-1,5-dienyl)-[1,3]dioxolane-4,5-dicarboxylic acid diisopropylester], the “half life t½” value in data set [1] was 96 h.
In data set [1] (determined as in Example 6), `CCOC(=O)[C@@H]1OC(C=C(C)CCC=C(C)C)O[C@H]1C(=O)OCC` (mixture of isomers) [compound 3, (E/Z)-(4R,5R)-2-(2,6-Dimethyl-hepta-1,5-dienyl)-[1,3]dioxolane-4,5-dicarboxylic acid diethylester] showed a half life of 21 h.
Turning to `CCCOC(=O)[C@@H]1OC(C=C(C)CCC=C(C)C)O[C@H]1C(=O)OCCC` (mixture of isomers) [compound 5, (E/Z)-(4R,5R)-2-(2,6-Dimethyl-hepta-1,5-dienyl)-[1,3]dioxolane-4,5-dicarboxylic acid dipropylester], the “half life t½” value in data set [1] is 264 h.
As to `COC(C=C(C)CCC=C(C)C)OC` [citral dimethyl acetal], the hydrolysis result in data set [2] was “rapidly hydrolized”.
As to `CC(C)=CCC/C(C)=C/C1OCC(C)O1` (centres unmarked) [citral propylene glycol acetal], the hydrolysis entry in data set [2] is recorded as “rapidly hydrolized”.
